Columns and labels:
[1] = test system: adult male Sprague Dawely rats; test: Liver and kidney functions (albumin, ALT, AST, creatinine, urea) after 28 days oral dosing; format: in vivo
Protocol: Toxicokinetic Effects of Carbamazepine and Formula (1-2) in Diabetic Rats
(§1) Diabetes was induced in adult male Sprague Dawely rats by streptozotocin (60 mg/kg, ip). Animals were divided into […], normal and diabetic sets; each set was divided into control and three-treated groups where rats received orally carbamazepine and formula (1-2) in dose levels of 100 and 200 mg/kg once daily for 28 days. The pharmacokinetic profiles were carried out over a period of 24 hours. The liver functions were evaluated by the determination of albumin, ALT and AST plasma levels and kidney functions were determined by creatinine and urea. Histopathology of rat's livers and kidneys were also investigated. Carbamazepine plasma levels were determined by a validated HPLC method.

[2] = Pharmacokinetic profiles over 24 hours in normal and diabetic rats (toxicokinetic study); format: in vivo, Sprague Dawely rats; settings: for reduction of AUC0-24 by diabetes / reduction of AUC0-inf by diabetes / reduction of Cmax by diabetes: streptozotocin-diabetic rats
Protocol: as §1, with “Toxicokinetic Effects of Carbamazepine and Formula (1-2)” for “Diabetes was induced”, “Diabetic Rats […]” for “adult male Sprague Dawely rats by streptozotocin (60 mg/kg, ip).”

[3] = treated groups, 100 and 200 mg/kg orally once daily for 28 days, P<0.05

In the case of `NC(=O)N1c2ccccc2C=Cc2ccccc21` [carbamazepine, Carbamazepine], the “elevation of liver enzymes, urea and creatinine in diabetic rats compared with normal rats” value ([1]; diabetic rats) is reported as “more pronounced in diabetic rats”, the Liver enzymes levels [1, 3] is reported as “significantly elevated” and the creatinine levels [1, 3] is reported as “significantly elevated”. For the same compound, the urea levels [1, 3] was “significantly elevated”, the “reduction of AUC0-24 by diabetes” value ([2]; carbamazepine 100 mg/kg orally) was 13.6% and the “reduction of AUC0-inf by diabetes” value ([2]; carbamazepine 100 mg/kg orally) was 22.8%. The “reduction of Cmax by diabetes” value ([2]; carbamazepine 100 mg/kg orally) was 6.8%, the “reduction of AUC0-24 by diabetes” value ([2]; carbamazepine 200 mg/kg orally) was 12.2% and the “reduction of AUC0-inf by diabetes” value ([2]; carbamazepine 200 mg/kg orally) was 32.8%. The “reduction of Cmax by diabetes” value ([2]; carbamazepine 200 mg/kg orally) was 20.3% and the “effect of diabetes on the rate and extent of absorption” value ([2]; diabetic rats, P<0.05) was “significantly altered”.

Reference: patent US9738631B2, “Compositions and methods for the treatment of neurological disorders” (CELLIXBIO PRIVATE LIMITED, priority 2012, dated 2017)
